Results on one compound are retold here after patent EP0462830B1, “Cyclic ether derivatives” (ZENECA LIMITED, priority 1990, dated 1991).

For test [1], the target named is T1, 5-LO (Homo sapiens, UniProt P09917).
T1 construct: incubating a test compound with heparinised human blood, prior to challenge with the calcium ionophore A23187; endogenous in cells; host or cells: leukocytes in heparinised human whole blood
T1 sequence (P09917 1-674): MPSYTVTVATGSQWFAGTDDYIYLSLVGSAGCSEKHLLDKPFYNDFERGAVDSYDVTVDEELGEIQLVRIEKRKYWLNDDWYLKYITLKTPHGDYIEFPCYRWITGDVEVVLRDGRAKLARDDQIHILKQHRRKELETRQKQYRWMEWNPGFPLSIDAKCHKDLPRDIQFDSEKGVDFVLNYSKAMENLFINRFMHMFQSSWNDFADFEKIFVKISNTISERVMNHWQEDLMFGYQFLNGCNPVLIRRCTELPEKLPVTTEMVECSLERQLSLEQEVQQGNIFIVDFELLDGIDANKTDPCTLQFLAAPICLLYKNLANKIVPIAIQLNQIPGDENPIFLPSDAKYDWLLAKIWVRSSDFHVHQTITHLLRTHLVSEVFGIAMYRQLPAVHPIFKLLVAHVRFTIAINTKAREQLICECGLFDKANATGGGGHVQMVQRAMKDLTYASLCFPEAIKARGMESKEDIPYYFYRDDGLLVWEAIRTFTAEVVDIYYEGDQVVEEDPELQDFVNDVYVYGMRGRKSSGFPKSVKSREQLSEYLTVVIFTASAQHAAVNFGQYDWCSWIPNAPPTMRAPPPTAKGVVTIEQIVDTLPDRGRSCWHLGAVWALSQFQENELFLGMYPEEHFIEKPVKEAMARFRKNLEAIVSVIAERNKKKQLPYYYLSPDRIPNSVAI
As to the kind of experiment: Test b): heparinised human blood challenged with calcium ionophore A23187, radioimmunoassay of LTB₄. It is filed as cell-based. The following applies: read-out: IC₅₀ (LTB₄).
Protocol: This test provides a measure of the intrinsic inhibitory properties of a test compound against soluble 5-LO in an extracellular environment. • b) An in vitro assay system involving incubating a test compound with heparinised human blood, prior to challenge with the calcium ionophore A23187 and then indirectly measuring the inhibitory effects on 5-LO by assaying the amount of LTB₄ using specific radioimmunoassays described by Carey and Forder (F. Carey and R.A. Forder, Prostaglandins, Leukotrienes Med., 1986, 22, 57; Prostaglandins, 1984, 28, 666; Brit. J. Pharmacol. 1985, 84, 34P) which involve the use of a protein-LTB₄ conjugate produced using the procedure of Young et alia (Prostaglandins, 1983, 26(4), 605-613). […] This test provides an indication of the effects of a test compound against 5-LO and also cyclooxygenase in the presence of blood cells and proteins.

The test system of test [2] is 5-LO. As to the kind of experiment: Test g): zymosan-induced liberation of LTB₄ within a subcutaneous air pouch of male rats. The test is classed as in vivo. The following applies: rat air pouch.

As to `CSC1(c2cccc(OCc3ccc4ccccc4c3)c2)CCOCC1` [Example 1, 4-methylthio-4-[3-(naphth-2-ylmethoxy)phenyl]tetrahydropyran], on 5-LO [1], the IC50 came to 50 nM. Also, the “oral ED₅₀(LTB₄)” value in the test with 5-LO [2] worked out at 8 mg/kg.
